Experimental data reported in patent US11142554B2 (MASSACHUSETTS INSTITUTE OF TECHNOLOGY, priority 2015, dated 2021).
Positions of bridges follow the written chain, without caps; N, C: chain ends. Non-standard residues stand in square brackets, D forms with d. Residues, ends and D or L forms follow the SMILES beside them. S5 = C=CCCC[C@](C)(N)C(=O)O; Nle = CCCC[C@H](N)C(=O)O

Experiments:
[1] = system: H929 multiple myeloma cells; test: Cell viability by CellTiter-Glo (CTG) assay; assay type: cell-based; details: 24 hours
Excerpt: (§1) Data are mean and s.d. for experiments performed in at least duplicate. Vehicle is DMSO.

MDA-MB231 cells = test: Cell viability by CellTiter-Glo (CTG) assay; assay type: cell-based, human; details: 24 hours
Excerpt: as §1

Bcl-xL [2] = target: T1, Bcl-xL (Homo sapiens, UniProt Q07817); test: receptor | Bcl-xL
Target sequence in this assay (Q07817 whole entry, looked up): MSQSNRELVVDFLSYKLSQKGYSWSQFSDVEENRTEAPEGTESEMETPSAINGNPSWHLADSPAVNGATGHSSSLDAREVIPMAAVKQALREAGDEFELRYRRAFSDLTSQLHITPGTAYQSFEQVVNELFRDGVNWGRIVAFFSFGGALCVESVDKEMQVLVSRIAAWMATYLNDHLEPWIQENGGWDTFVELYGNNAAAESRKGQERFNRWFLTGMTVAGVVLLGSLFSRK

Bcl-w [3] = target: Bcl-w (Homo sapiens, UniProt Q92843); test: receptor | Bcl-w
Bfl-1 [4] = target: Bfl-1 (Homo sapiens, UniProt Q16548); test: receptor | Bfl-1
Bcl-2 [5] = target: T2, Bcl-2 (Homo sapiens, UniProt P10415); test: receptor | Bcl-2
Target sequence in this assay (P10415 whole entry, looked up): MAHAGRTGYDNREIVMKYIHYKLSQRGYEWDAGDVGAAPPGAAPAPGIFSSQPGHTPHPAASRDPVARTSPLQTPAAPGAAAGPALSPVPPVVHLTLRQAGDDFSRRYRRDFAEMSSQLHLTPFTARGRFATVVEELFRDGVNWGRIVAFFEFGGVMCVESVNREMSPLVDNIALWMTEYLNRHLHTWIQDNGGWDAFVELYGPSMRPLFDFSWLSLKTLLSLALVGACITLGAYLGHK

Mcl-1 [6] = target: T3, Mcl-1 (Homo sapiens, UniProt Q07820); test: receptor | Mcl-1; details: read-out: receptor | Mcl-1
Target sequence in this assay (Q07820 whole entry, looked up): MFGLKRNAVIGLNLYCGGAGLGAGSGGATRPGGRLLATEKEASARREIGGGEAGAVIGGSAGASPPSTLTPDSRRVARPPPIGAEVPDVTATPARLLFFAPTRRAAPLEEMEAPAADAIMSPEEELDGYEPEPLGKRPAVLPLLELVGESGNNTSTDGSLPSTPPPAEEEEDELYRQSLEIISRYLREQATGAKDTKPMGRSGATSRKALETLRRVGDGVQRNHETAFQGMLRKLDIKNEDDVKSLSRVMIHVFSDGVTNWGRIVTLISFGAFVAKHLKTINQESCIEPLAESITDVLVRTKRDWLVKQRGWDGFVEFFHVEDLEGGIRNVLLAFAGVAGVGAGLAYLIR

Bcl-w [7] = target: T4, Bcl-w (Homo sapiens, UniProt Q92843); test: Fluorescence anisotropy direct binding of N-terminal fluorescein peptides
T4 sequence (Q92843 1-193): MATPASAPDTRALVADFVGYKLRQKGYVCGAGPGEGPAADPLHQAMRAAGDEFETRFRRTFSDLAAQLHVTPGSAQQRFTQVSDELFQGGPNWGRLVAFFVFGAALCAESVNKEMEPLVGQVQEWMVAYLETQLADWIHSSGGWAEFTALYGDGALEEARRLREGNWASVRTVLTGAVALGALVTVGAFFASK

Bcl-xL [8] = target: T1, Bcl-xL; test: as above
Target sequence in this assay (Q07817 whole entry): as the sequence (Q07817 whole entry, looked up) above

Bcl-2/Myc 2924 cells = system: Bcl-2/Myc 2924 cells
Experimental: (§2) A whole-cell BH3 profiling assay was used to test the specificity of our Mcl-1-binding peptides in several cell lines with differing dependencies on Bcl-2, Mcl-1, Bcl-xL, or Bfl-1. In this assay, permeabilized cells were treated with increasing doses of BH3 peptides, and mitochondrial outer membrane permeabilization (MOMP) was monitored using the dye JC-1 (see below). Mcl-1/Myc 2640 is an engineered murine leukemia cell line overexpressing murine Mcl-1 and Myc, and Bcl-2/Myc 2924 is a similarly engineered cell line overexpressing human Bcl-2.
(§3) Assay plates were produced by serial dilution of each peptide from 200 μM to 0.2 nM using 10-fold dilutions in DTEB (Derived from Trehalose Experimental Buffer: 135 mM trehalose, 50 mM KCl, 20 μM EDTA, 20 μM EGTA, 0.1% BSA, 5 mM succinate, 10 mM HEPES-KOH pH 7.5) containing 0.005% w/v digitonin, 10 mM 2-mercaptoethanol, 2 μM JC-1, and 20 mg mL-1 oligomycin. Triplicate wells for each peptide were made for each cell line by adding 15 μL of the peptide dilutions to each well of a black, untreated 384-well plate. Control wells containing no peptide or 20 μM FCCP (carbonyl cyanide-4(trifluoromethoxy) phenylhydrazone, a chemical uncoupler of oxidative phosphorylation) were included for zero and complete depolarization, respectively. Multiple plates were produced from the same stock and frozen at −80 ° C. for later use. Frozen plates were brought to RT prior to use, cells were suspended in DTEB at a density of 1.34×10^6 cells/mL, and 15 μL of cell suspension was added to each well of the dilution series to yield wells ranging from 0.1 nM to 100 μM peptide and 20000 cells/well. Fluorescence of JC-1 aggregates was measured at 590 nm with 545 nm excitation on a Tecan Safire2 at 5 min intervals for 3 h. The area under each signal-vs-time curve was calculated and normalized to the untreated and FCCP values to produce the percent depolarization. Curves were plotted as the log [peptide] vs percent depolarization, with sigmoidal dose—response curves fitted using Graphpad PRISM 6.

MDA-MB-231 cells = system: MDA-MB-231 cells
Experimental: as §2, §3

Mcl-1/Myc 2640 cells = system: Mcl-1/Myc 2640 cells
Experimental: as §2, §3

Pfeiffer cells = system: Pfeiffer cells
Experimental: as §2, §3

Bcl-2 [9] = target: T2, Bcl-2; test: Fluorescence anisotropy direct binding of N-terminal fluorescein peptides
Target sequence in this assay (P10415 whole entry): as the sequence (P10415 whole entry, looked up) above

Bfl-1 [10] = target: T5, Bfl-1 (Homo sapiens, UniProt Q16548); test: as above
T5 sequence (Q16548 1-175): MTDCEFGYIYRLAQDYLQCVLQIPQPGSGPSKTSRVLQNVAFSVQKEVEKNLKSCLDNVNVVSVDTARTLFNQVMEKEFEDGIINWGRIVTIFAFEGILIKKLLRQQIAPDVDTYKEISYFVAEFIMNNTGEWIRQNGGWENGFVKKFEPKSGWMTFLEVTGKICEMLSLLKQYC

Bfl-1 [11] = details: reported in the literature; cited from earlier work
Bcl-w [12] = target: T4, Bcl-w; details: reported in the literature; cited from earlier work
Mcl-1 [13] = target: T3, Mcl-1; test: Competition of unlabeled peptides with a fluorescently labeled Bim variant; details: unlabeled peptide
Target sequence in this assay (Q07820 whole entry): as the sequence (Q07820 whole entry, looked up) above

[14] = system: Human multiple myeloma cell lines dependent upon Mcl-1
Experimental: as §2, §3

Bcl-2 [15] = target: T2, Bcl-2; details: reported in the literature; cited from earlier work
Target sequence in this assay (P10415 whole entry, species assumed): as the sequence (P10415 whole entry, looked up) above

Bcl-xL [16] = target: T1, Bcl-xL; details: reported in the literature; cited from earlier work
Target sequence in this assay (Q07817 whole entry, species assumed): as the sequence (Q07817 whole entry, looked up) above

MEF cells = test: Lactate dehydrogenase (LDH) release assay, non-specific cell lysis; assay type: cell-based
Excerpt: FIG. 5|Results of studies assessing non-specific cell-lysis by internally cross-linked peptides. Lactate dehydrogenase release assays (LDH) identified membrane-disruptive peptides 3 (SEQ ID NO:9) and 7 (SEQ ID NO:7); tested in MEF cells. Peptides 7, 10, 3, and 11-20 are SEQ ID NOs: 7, 8, 9, and 10-19 respectively.
Additional studies examined the non-specific cell lysis activity of peptide 3 (SEQ ID NO:9) (M1 SAHBd) and certain sequence variants of peptide 3 (SEQ ID NO:9) (M1 SAHBd).

Mcl-1 [17] = target: T3, Mcl-1; test: IC50 (nM)
Excerpt: Table printed on a drawing sheet, FIG. 8
Head of the field: IC50 (nM)
The patent's description of the figure: FIG. 8|Results of studies assessing cell permeability of various internally cross-linked peptides. Stapled peptides based on MB2 lead peptide are shown. […] MB2 (SEQ ID NO:23); B1 SAHBa (SEQ ID NO:24); B1 SAHBf (SEQ ID NO:25); B1 DAHBd (SEQ ID NO:26); B2 SAHBd (SEQ ID NO:27); B3 SAHBd (SEQ ID NO:28); B1 SAHBg (SEQ ID NO:29); B1 SAHBh (SEQ ID NO:30).

Mcl-1 [18] = target: T3, Mcl-1; test: Fluorescence anisotropy direct binding of N-terminal fluorescein peptides; details: 23-residue peptide with N-terminal fluorescein
Target sequence in this assay (Q07820 whole entry): as the sequence (Q07820 whole entry, looked up) above

[19] = parent: Bim for Bim_A2eT, Bim_A2eT for its point mutants, A12/B3 for MS1/MS2

For CN(C)CC[C@H](CSc1ccccc1)Nc1ccc(S(=O)(=O)NC(=O)c2ccc(N3CCN(Cc4ccccc4-c4ccc(Cl)cc4)CC3)cc2)cc1[N+](=O)[O-] [ABT-737], the “effect on cell viability (in words)” value [1] was “not active” and the “effect on cell viability (in words)” value (MDA-MB231 cells) was “clear dose-dependent reduction in cell viability”.
In the case of CC[C@H](C)[C@H](NC(=O)[C@H](CCCNC(=N)N)NC(=O)[C@H](CCCNC(=N)N)NC(=O)[C@H](CC(C)C)NC(=O)CNC(=O)[C@H](CCC(N)=O)NC(=O)[C@@H](NC(=O)[C@@H](NC(=O)[C@H](Cc1c[nH]c2ccccc12)NC(=O)[C@@H](NC(=O)[C@H](CCC(=O)O)NC(=O)[C@@H]1CCCN1C(=O)[C@@H](N)CCCNC(=N)N)[C@@H](C)CC)[C@@H](C)CC)[C@@H](C)O)C(=O)NCC(=O)N[C@@H](CC(=O)O)C(=O)N[C@@H](CCC(=O)O)C(=O)N[C@@H](Cc1ccccc1)C(=O)N[C@@H](CC(N)=O)C(=O)N[C@@H](C)C(=O)N[C@@H](Cc1ccc(O)cc1)C(=O)N[C@@H](Cc1ccc(O)cc1)C(=O)N[C@@H](C)C(=O)N[C@@H](CCCNC(=N)N)C(N)=O [Bim_A2eT_E2gG], the Kd (Bcl-xL [2]) is reported as 37 ± 7 nM, the Kd (Bcl-w [3]) is reported as 94 ± 36 nM and the Kd (Bfl-1 [4]) is reported as 250 ± 63 nM. For the same compound, the Kd (Bcl-2 [5]) was 150 ± 27 nM and the Kd (Mcl-1 [6]) was 1.6 ± 0.57 nM.
For CC[C@H](C)[C@H](NC(=O)[C@H](CCC(=O)O)NC(=O)[C@H](CC(=O)O)NC(=O)CNC(=O)[C@H](CC(C)C)NC(=O)[C@H](CCCNC(=N)N)NC(=O)[C@H](CCC(N)=O)NC(=O)[C@H](CC(C)C)NC(=O)[C@H](CO)NC(=O)[C@H](CCC(N)=O)NC(=O)[C@@H](NC(=O)[C@H](CC(C)C)NC(=O)[C@H](Cc1c[nH]c2ccccc12)NC(=O)[C@@H](NC(=O)[C@H](CCC(=O)O)NC(=O)[C@@H]1CCCN1C(=O)[C@H](CCCNC(=N)N)NC(C)=O)[C@@H](C)CC)[C@@H](C)O)C(=O)N[C@@H](CC(N)=O)C(=O)N[C@@H](C)C(=O)N[C@@H](Cc1ccc(O)cc1)C(=O)N[C@@H](Cc1ccc(O)cc1)C(=O)N[C@@H](C)C(=O)N[C@@H](CCCNC(=N)N)C(N)=O [MS2], the “binding affinity to Bcl-w (in words)” value (Bcl-w [7]) was “hundred-nanomolar range”, the “reduction in Bcl-w binding relative to the peptide without the mutation” value (Bcl-w [7]; [19]) was roughly 10 fold and the “binding affinity to Bcl-xL (in words)” value (Bcl-xL [8]) was “micromolar affinity”. For the same compound, the “reduction in Bcl-xL binding relative to the peptide without the mutation” value (Bcl-xL [8]; [19]) was roughly 100 fold, the EC50 (Bcl-2/Myc 2924 cells) was greater than 100 µM and the EC50 (MDA-MB-231 cells) was greater than 100 µM. For the same compound, the EC50 (Mcl-1/Myc 2640 cells) was 0.7 µM, the EC50 (Pfeiffer cells) was greater than 100 µM and the “binding affinity to Bcl-2 (in words)” value (Bcl-2 [9]) was “micromolar affinity”. The “reduction in Bcl-2 binding relative to the peptide without the mutation” value (Bcl-2 [9]; [19]) was roughly 100 fold, the “binding affinity to Bfl-1 (in words)” value (Bfl-1 [10]) was “micromolar affinity” and the “reduction in Bfl-1 binding relative to the peptide without the mutation” value (Bfl-1 [10]; [19]) was roughly 100 fold.
For CC[C@H](C)[C@H](NC(=O)[C@H](CCCCN)NC(=O)[C@H](CCCNC(=N)N)NC(=O)[C@H](CC(C)C)NC(=O)[C@H](CCC(N)=O)NC(=O)[C@H](C)NC(=O)[C@H](C)NC(=O)[C@H](Cc1ccccc1)NC(=O)[C@H](CCC(=O)O)NC(=O)[C@@H]1CCCN1C(=O)[C@@H]1CCCN1C(=O)[C@H](CC(C)C)NC(=O)[C@H](CCC(=O)O)NC(=O)[C@H](C)NC(C)=O)C(=O)NCC(=O)N[C@@H](CC(=O)O)C(=O)N[C@@H](CCCCN)C(=O)N[C@H](C(=O)N[C@@H](Cc1ccc(O)cc1)C(=O)N[C@@H](CS)C(N)=O)C(C)C [NoxaA], the “no binding up to (Bfl-1)” value (Bfl-1 [11]) is listed as greater than 2500 nM, the “no binding up to (Bcl-w)” value (Bcl-w [12]) is listed as greater than 2500 nM and the “binding to Mcl-1 in competition assay (in words)” value (Mcl-1 [13]) is listed as “very weak”. It also gave an EC50 (Bcl-2/Myc 2924 cells) greater than 100 µM, an EC50 [14] greater than 100 µM and an EC50 (MDA-MB-231 cells) greater than 100 µM. For the same compound, the EC50 (Mcl-1/Myc 2640 cells) was 20 µM, the “no binding up to (Bcl-2)” value (Bcl-2 [15]) was greater than 2500 nM and the “no binding up to (Bcl-xL)” value (Bcl-xL [16]) was greater than 2500 nM.
For CCCC[C@H](NC(=O)[C@H](Cc1c[nH]c2ccccc12)NC(=O)[C@@H](NC(C)=O)[C@@H](C)CC)C(=O)N[C@H](C(=O)N[C@@H](CCC(N)=O)C(=O)NCC(=O)N[C@@H](CC(C)C)C(=O)N[C@@H](CCCNC(=N)N)C(=O)N[C@@]1(C)CCCC=CCCC[C@@](C)(C(=O)N[C@H](C(=O)N[C@@H](CC(N)=O)C(=O)N[C@@H](C)C(=O)N[C@@H](Cc2ccc(O)cc2)C(=O)N[C@@H](Cc2ccc(O)cc2)C(=O)N[C@@H](C)C(=O)N[C@@H](CCCNC(=N)N)C(=O)N[C@@H](CCCNC(=N)N)C(N)=O)[C@@H](C)CC)NC(=O)[C@H](CC(=O)O)NC(=O)CNC(=O)[C@H](CC(C)C)NC1=O)[C@@H](C)O [peptide 7, IWNleTQGLRXLGDXINAYYARR] (Ac-IW[Nle]TQGLR[S5]LGD[S5]INAYYARR-NH2; staple 9-13; N-terminus assumed), the “LDH release, membrane disruption (in words)” value (MEF cells) was “membrane-disruptive”.
Compound “IWFAQEIDRIGDEVNAYYARR (See specification as filed for detailed description of substitutions and preferred embodiments) [B1, native, non-stapled B1 peptide]” has an IC50 (Mcl-1 [17]) of 90 nM.
In the case of “RPEIWLGQSLQRLGDEINAYYAR [B3, Bim-BH3 variant clone from yeast surface display library]”, the “binding preference among KSBcl-2 and five human Bcl-2 family proteins” value (Mcl-1 [18]) is reported as “bound to KSBci-2 and Mcl-1 in preference to Bcl-2, Bfl-1, Bcl-w, and to a lesser extent Bcl-xL”.
In the case of “RPEIWMGQGLRRLGDEINAYYAR [A12, Bim-BH3 variant clone from yeast surface display library]”, the “binding preference among KSBcl-2 and five human Bcl-2 family proteins” value (Mcl-1 [18]) is reported as “bound to KSBci-2 and Mcl-1 in preference to Bcl-2, Bfl-1, Bcl-w, and to a lesser extent Bcl-xL”.
